Data from patent US12280090B2, “Antimicrobial peptides” (priority 2018, dated 2025).
In brackets after ≈: the same amount, converted by molar mass. Like-named read-outs stand apart in the source and are kept apart here. Ends that are not written are not given here. Peptide text beside a SMILES is read from it.

Key:
Type in all cases: cell-based
[1] = test system: Pseudomonas aeruginosa: ATCC 10148
Description: (§1) Microtiter broth dilution assays. HP2, HP3, and HP5 peptides are comprised of novel sequences that have not yet been described in the AMP literature. A common method for establishing antimicrobial activity of peptides is to perform microtiter broth assays. Microtiter broth dilution methods were implemented for determination of the minimum inhibitory concentration (MIC) and minimum bactericidal concentration (MBC). HP3 and HP5 were tested in addition to Ranatuerin-1/HP4 peptide as a positive control. HP2 could not be tested because multiple peptide synthesis attempts failed. The human cathelicidin, LL-37^30 was used as an additional positive control, and an unrelated similarly sized cationic peptide from the T. pallidum protein Tp0751 was used as a negative control. The potential AMPs were tested against bacteria representative of all three types of known cell envelope (Gram-positive, negative, and the complex and unique mycobacterial cell wall/envelope), given that a major mechanism used by AMPs is cell wall/membrane targeting.
(§2) Microtiter broth dilution assays. To test for antimicrobial activity, HP3, HP4/Ranatuerin-1, and HP5, peptides were synthesized by GenScript (Piscataway, New Jersey, USA). HP2 was not tested because the service provider was unable to synthesize this peptide despite multiple attempts. An unrelated, similarly-sized peptide from the Treponema pallidum protein Tp0751^55 was used as a negative control and the human cathelicidin, LL-37^30, was included as a positive control. Peptides were dissolved in filter-sterilized ultrapure water and tested for sterility by plating on non-selective agar plates followed by a 48 h incubation at 37° C. Two-fold serial dilutions of each peptide were prepared to obtain a series corresponding to ten times the required testing concentrations (2560, 1280, 640, 320, 160, 80, 40, 20, 10, and 5 μg/mL)^29.
(§3) Microtiter broth dilution methods were implemented for determination of the minimum inhibitory concentration (MIC) and minimum bactericidal concentration (MBC) of the four putative AMPs and the negative control peptide using procedures adapted from the R.E.W. Hancock Laboratory for cationic AMPs^29 and the CLSI methods for dilution antimicrobial susceptibility tests^56.
(§4) To assess antimicrobial activity across a diverse range of bacterial species, colonies were cultured overnight on Mueller Hinton agar plates (MHA; +5% sheep blood for S. pyogenes)^56 from frozen glycerol stock. Bacteria tested include Gram-negative rods (Escherichia coli: ATCC 9723H; Pseudomonas aeruginosa: ATCC 10148), Gram-positive cocci (Staphylococcus aureus: ATCC 6538P; Streptococcus pyogenes: unknown strain, hospital isolate), and Mycobacterium smegmatis (MC^2155; classified as neither Gram-positive nor Gram-negative). Bacterial suspensions were prepared by placing 3-5 morphologically similar colonies from the grown plate into sterile glass culture tubes containing 2 mL of Mueller Hinton Broth (MHB; +5% lysed horse blood for S. pyogenes) 56. Microbial inoculums from bacterial suspensions were prepared through a spectrophotometric adjustment of turbidity to 0.08-0.1 at 600 nm to achieve a turbidity equivalent to that of a 0.5 McFarland standard (1-2×10^8 CFU/mL)^29. The standardized bacterial inoculums were then diluted in MHB to obtain final cell densities of approximately […].
(§5) Ninety-six-well microtiter plates (Fisher Cat. No. CS003790; Nepean, Ontario, Canada) were prepared with 100 μL of E. coli, P. aeruginosa, S. aureus, S. pyogenes, or M. smegmatis bacterial suspension (5×10^5 CFU/mL) dispensed into each well of columns 1 through 11. Eleven microliters of the 10×AMP dilution series for all four peptides were added to each well from column 1 (2560 μg/mL) to column 10 (5 μg/mL) in all plates. Column 11 functioned as a positive control for bacterial growth in the absence of AMPs. Column 12 in each plate contained 100 μL of MHB as a sterility control (+5% lysed horse blood for S. pyogenes)^56. […]

[2] = test system: Streptococcus pyogenes: unknown strain, hospital isolate
Description: as §1, §2, §3, §4, §5

[3] = test system: Mycobacterium smegmatis (MC^2155)
Description: as §1, §2, §3, §4, §5

[4] = test system: Staphylococcus aureus: ATCC 6538P
Description: as §1, §2, §3, §4, §5

[5] = test system: Escherichia coli: ATCC 9723H
Description: as §1, §2, §3, §4, §5

[6] = test system: Escherichia coli—Carbapenemase-producing organism; New-Dehli Metallobetalactamase
Description: Independent experiments were conducted with four strains of E. coli, including ATCC E. coli (Escherichia coli—ATCC 25922 “wild type”); ESBL E. coli (Escherichia coli—Extended spectrum beta-lactamase); CPO E. coli (KPC) (Escherichia coli—Carbapenemase-producing organism; Klebsiella pneumoniae carbapenemase); and CPO E. coli (NDM) (Escherichia coli—Carbapenemase-producing organism; New-Dehli Metallobetalactamase).
The ATCC (American Type Culture Collection) strains received from Cedarlane. Multi drug resistant (MDR) strains, as clinical isolates, were received from the laboratory of Dr. Linda Hoang.
Putative antimicrobial peptides were synthesized by GeneScript. A-list antimicrobial peptides re-synthesized by GeneScript. P2_CCH, P5_CCH, and P5_CCH_A19K were each synthesized under two conditions: standard synthesis using TFA, and the other with TFA-removal using acetate as a counter-ion. A MIC method, adapted for use with cationic antimicrobial peptides, was used to evaluate MIC antimicrobial activity (Hancock 1999).
The following data are presented to show the activity (MIC/MBC in μg/mL) of certain antimicrobial peptides described herein relative to a modified/synthetic version having a specified substitution. While data presented in tables above may be presented again, or may be represented in data provided in the tables below, such duplication is believed to assist the reader in readily noting comparisons. Different Run Numbers noted in the following tables denotes experiments conducted on different days, with each run reflecting multiple n values.

[7] = unknown strain, hospital isolate

Compound | MIC ([1]; ATCC 10148) | MIC [2, 7] | MIC ([3]; Mycobacterium (MC^2155)) | MIC ([4]; ATCC 6538) | MIC ([5]; ATCC 9723) | MIC [6] | MBC ([1]; ATCC 10148) | MBC [2, 7] | MBC ([3]; Mycobacterium (MC^2155)) | MBC ([4]; ATCC 6538) | MBC ([5]; ATCC 9723) | MBC ([1]; P. aeruginosa (Table 5)) | MBC ([2]; S. pyogenes (Table 5)) | MBC ([3]; M. smegmatis (Table 5)) | MBC ([4]; S. aureus (Table 5)) | MBC ([5]; E. coli (Table 5))
CC[C@H](C)[C@H](NC(=O)CNC(=O)[C@@H](NC(=O)[C@@H](NC(=O)[C@H](CCCCN)NC(=O)CNC(=O)[C@@H](NC(=O)[C@H](CC(=O)O)NC(=O)[C@H](CCCCN)NC(=O)[C@@H](NC(=O)[C@@H](NC(=O)[C@H](CC(=O)O)NC(=O)[C@H](CC(C)C)NC(=O)[C@H](CC(C)C)NC(=O)CN)[C@@H](C)CC)[C@@H](C)CC)[C@@H](C)O)[C@@H](C)O)[C@@H](C)O)C(=O)N[C@@H](CC(C)C)C(=O)N[C@@H](CCSC)C(=O)N[C@@H](CC(=O)O)C(=O)N[C@H](C(=O)N[C@@H](CC(C)C)C(=O)N[C@@H](CCCCN)C(=O)N[C@@H](CS)C(=O)N[C@@H](CCC(N)=O)C(=O)N[C@@H](CCSC)C(=O)N[C@H](C(=O)NCC(=O)N[C@@H](CCCNC(=N)N)C(=O)N[C@@H](CS)C(=O)N1CCC[C@H]1C(=O)N1CCC[C@H]1C(=O)N[C@@H](CO)C(=O)N[C@@H](CO)C(=O)O)[C@@H](C)O)[C@@H](C)O [Peptide P3_CCH] (H-GLLDIIKDTGKTTGILMDTLKCQMTGRCPPSS-OH; N-terminus and C-terminus assumed) | >256 µg/mL | >256 µg/mL | >256 µg/mL | >256 µg/mL | >256 µg/mL | – | >256 µg/mL | >256 µg/mL | >256 µg/mL | >256 µg/mL | >256 µg/mL | – | – | – | – | –
CC[C@H](C)[C@H](NC(=O)[C@H](C)NC(=O)[C@@H]1CCCN1C(=O)[C@@H](N)Cc1ccccc1)C(=O)N[C@H](C(=O)N[C@@H](CS)C(=O)N[C@@H](CCCCN)C(=O)N[C@H](C(=O)N[C@@H](CO)C(=O)N[C@@H](CCCCN)C(=O)N[C@@H](CC(N)=O)C(=O)N[C@@H](CS)C(=O)O)C(C)C)[C@@H](C)CC [Peptide P8_CCH, FPAIICKVSKNC] (H-FPAIICKVSKNC-OH; N-terminus and C-terminus assumed) | >256 µg/mL | >256 µg/mL | 128 µg/mL (≈ 96.8 µM) | >256 µg/mL | >256 µg/mL | – | >256 µg/mL | >256 µg/mL | – | >256 µg/mL | >256 µg/mL | – | – | – | – | –
ATAWRIPPPGMQPIIPIRIRPLCGKQ [Peptide P7_CCH] | >256 µg/mL | >256 µg/mL | 32 µg/mL | >256 µg/mL | >256 µg/mL | 256 µg/mL | >256 µg/mL | >256 µg/mL | >256 µg/mL | >256 µg/mL | >256 µg/mL | – | – | – | – | –
FLTKPGMTFGKLLGK [Peptide P9_CCH] | >256 µg/mL | >256 µg/mL | >256 µg/mL | >256 µg/mL | >256 µg/mL | – | >256 µg/mL | >256 µg/mL | >256 µg/mL | >256 µg/mL | >256 µg/mL | – | – | – | – | –
FYFPVSRKFGGK [Peptide P1_CCH, FYFPVSRKFGGK] | >256 µg/mL | >256 µg/mL | – | >256 µg/mL | >256 µg/mL | – | – | – | – | – | – | > 256 µg/mL | > 256 µg/mL | > 256 µg/mL | > 256 µg/mL | > 256 µg/mL
SNRDFFKVNIFRLCG [Peptide P10_CCH, SNRDFFKVNIFRLCG] | >256 µg/mL | >256 µg/mL | >256 µg/mL | >256 µg/mL | >256 µg/mL | – | >256 µg/mL | >256 µg/mL | >256 µg/mL | >256 µg/mL | >256 µg/mL | – | – | – | – | –

Second part, led by results:

MIC ([1]; ATCC 10148) | MIC [2, 7] | MIC ([3]; Mycobacterium (MC^2155)) | MIC ([4]; ATCC 6538) | MIC ([5]; ATCC 9723) | MIC [6] | Compound | MBC ([1]; ATCC 10148) | MBC [2, 7] | MBC ([3]; Mycobacterium (MC^2155)) | MBC ([4]; ATCC 6538) | MBC ([5]; ATCC 9723) | MBC ([1]; P. aeruginosa (Table 5)) | MBC ([2]; S. pyogenes (Table 5)) | MBC ([3]; M. smegmatis (Table 5)) | MBC ([4]; S. aureus (Table 5)) | MBC ([5]; E. coli (Table 5))
>256 µg/mL | >256 µg/mL | >256 µg/mL | >256 µg/mL | >256 µg/mL | – | CC[C@H](C)[C@H](N)C(=O)N[C@@H](CCC(N)=O)C(=O)N[C@@H](CCCNC(=N)N)C(=O)N[C@@H](CC(C)C)C(=O)N1CCC[C@H]1C(=O)N[C@H](C(=O)N[C@H](C(=O)N[C@H](C(=O)N[C@H](C(=O)N[C@@H](CC(C)C)C(=O)N1CCC[C@H]1C(=O)N[C@@H](CO)C(=O)N[C@@H](CC(C)C)C(=O)N[C@@H](Cc1ccc(O)cc1)C(=O)N[C@@H](CS)C(=O)N[C@H](C(=O)N[C@H](C(=O)N[C@@H](CS)C(=O)N[C@@H](CCCNC(=N)N)C(=O)N[C@H](C(=O)N[C@@H](CS)C(=O)O)[C@@H](C)O)[C@@H](C)CC)C(C)C)[C@@H](C)CC)C(C)C)[C@@H](C)CC)C(C)C [Peptide P14_CCH] (H-IQRLPVIVILPSLYCVICRTC-OH; N-terminus and C-terminus assumed) | >256 µg/mL | >256 µg/mL | >256 µg/mL | >256 µg/mL | >256 µg/mL | – | – | – | – | –
>256 µg/mL | >256 µg/mL | >256 µg/mL | >256 µg/mL | >256 µg/mL | – | IAGQVAAAKQKHI [Peptide P12_CCH, IAGQVAAAKQKHI] | >256 µg/mL | >256 µg/mL | >256 µg/mL | >256 µg/mL | >256 µg/mL | – | – | – | – | –
>256 µg/mL | >256 µg/mL | >256 µg/mL | >256 µg/mL | >256 µg/mL | – | LRCPTPHYNFENGIGNHLMWNIIWLNAQQMSYKNK [Peptide P15_CCH] | >256 µg/mL | >256 µg/mL | >256 µg/mL | >256 µg/mL | >256 µg/mL | – | – | – | – | –
>256 µg/mL | >256 µg/mL | >256 µg/mL | >256 µg/mL | >256 µg/mL | – | SNRDFFMVNIFGLCGPFGIMERKRR [Peptide P16_CCH] | – | – | – | – | – | – | – | – | – | –
